Reference: PubChem BioAssay AID2060907 (Molecular Pharmacology Branch, DTP, NCI, 2025)
“And” between values parts separate entries of the source, which are not always exact repeats. Identical values can stand only once. One block for each compound: values may come before it.

Tested on: 388556-164-R-J1-PDC complex spheroid viability
Test: Anticancer human tumor 388556-164-R-J1-PDC patient-derived colon adenocarcinoma cell line growth inhibition [RAS]
Settings: for viability, T/C: stronger effect = lower value
Source text: RAS pathway inhibitors in Combinations in Complex Spheroids
A high-throughput screen of multi-cell type tumor spheroids was designed to identify active combinations of RAS pathway inhibitors and targeted small molecules. Complex spheroids include a stromal component modeled by human endothelial cells (HUVEC) and fibroblasts modeled by human mesenchymal stem cells (MSCs). The concentration ranges selected for each drug and investigational agent were based upon clinically achievable concentrations if the clinical Cmax of the agent was known.
Compounds. The drugs and investigational agents: abemaciclib (NSC768073), cobimetinib (NSC768068), divarasib (GDC6063, NSC841802), docetaxel (NSC628503), GDC-1971 (RLY-1971, NSC841576), gemcitabine (NSC613327), inavolisib (NSC800729), ipatasertib (NSC767898), KB-0742 (NSC834161), MRTX-1133 (NSC836407), osimertinib (NSC779217), RMC-4630 (NSC839698), RMC-6236 (NSC851965), RMC-6291 (NSC852671), Ro-3306 (NSC812927), sapanisertib (NSC764658), SN-38 (NSC673596), staurosporine (NSC755774), SY5609 (NSC837396), and tovorafenib (DAY101, NSC766906), were obtained from the National Cancer Institute (NCI) Developmental Therapeutics Program Chemical Repository. The FDA-approved anticancer drug set is available from the NCI Developmental Therapeutics Program. […] The stock solutions were prepared in dimethyl sulfoxide (DMSO, Sigma-Aldrich, St. Louis, MO, cat. D2650) at 800-fold the tested concentration and stored at -70 degrees C prior to their use. All drugs and investigational agents were tested over a range starting from a high concentration at or near the clinical Cmax and decreasing in half-log increments. If the clinical Cmax for an agent had not been determined, the highest concentration tested was 10 microM.
Cell Culture. All cells were maintained in an incubator at 37 degrees C and 5% CO2 with 95% humidity. The PDC lines were cultured according to standard operating procedures established by the NCI PDMR. All PDCs were thawed and cultured in Matrigel-coated flasks prepared with a working solution of 1X Ham's F-12 nutrient mix, without supplementation (Invitrogen, Waltham, MA, cat. 11765054), 100 U/mL penicillin-streptomycin (Invitrogen, cat. 15140122), and 2.5% Matrigel (Corning Inc., Corning, NY, cat. 354248) for the first three passages. The 362531-283-R-J2-PDC and 782815-120-R-J1-PDC lines were cultured in 6C/Colon 1B media, which includes advanced DMEM/F-12 (Thermo Fisher Scientific, cat. 12634028), 10 mM HEPES (Thermo Fisher Scientific, cat. 15630080), 1X GlutaMAX supplement (Thermo Fisher Scientific, cat. 35050061), 0.1 mg/mL primocin (InvivoGen, San Diego, CA, cat. ant-pm-2), 10% defined fetal bovine serum, heat inactivated (HyClone Laboratories Inc., Logan, UT, cat. SH30070.03HI), 50% L-WRN conditioned media (ATCC, cat. CRL-3276), 1.25 mM N-Acetyl-L-cysteine (Sigma-Aldrich, cat. A9165), 10 mM nicotinamide (Sigma-Aldrich, cat. N0636), 1X B-27 supplement (Thermo Fisher Scientific, cat. 17504044), 1X N-2 supplement (Thermo Fisher Scientific, cat. 17502048), 50 ng/mL human EGF (Thermo Fisher Scientific, cat. PHG0311), and 10 microM Y-27632 dihydrochloride (Tocris Bioscience, cat. 1254). The K12877-001-R-J1-PDC line was cultured in 6I media, which includes all 6C/Colon 1B media plus 10 ng/mL human FGF-10 (PeproTech, cat. 100-26), 1 ng/mL human FGF-2 (PeproTech, cat. 100-18B), 1 µM prostaglandin E2 (Tocris Bioscience, cat. 2296), […] hydrocortisone (Sigma-Aldrich, cat. H4001), and […] bovine insulin (Sigma-Aldrich, cat. I6634). The K86415-001-R-J1-PDC line was cultured in 6D media, which includes all 6C/Colon 1B media components minus the L-WRN conditioned media. The 485176-168-R4-J1-PDC was cultured in PANC media, which includes all 6C/Colon 1B media plus 100 ng/mL human FGF-10 (PeproTech, cat. 100-26), 500 nM SB-431542 (Selleckchem, cat. S1067), and 10 nM gastrin (Tocris Bioscience, cat. 3006). […]
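Further: spheroids exposed to compound for 7 days before readout.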
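Wherever viability, T/C is given: 100% = DMSO vehicle control luminescence.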

- IC50 (curve of compound): > 1000 nM
Compound: CCN1CCN(Cc2ccc(Nc3ncc(F)c(-c4cc(F)c5nc(C)n(C(C)C)c5c4)n3)nc2)CC1
- viability, T/C (compound 0.00316 µM): 99% and 107% and 91.4%
- viability, T/C (compound 0.01 µM): 103% and 96.9% and 102%
- viability, T/C (compound 0.0316 µM): 100% and 93.8% and 103%
- viability, T/C (compound 0.1 µM): 97.8% and 98.6% and 93.7%
- viability, T/C (compound 0.316 µM): 83.3% and 90.2% and 96.2%
- viability, T/C (compound 1 µM): 91.3% and 82.5% and 92.3%

- IC50 (curve of first compound, second compound 0.000949 µM): 106 nM
- IC50 (curve of first compound, second compound 0.003 µM): 116 nM
- IC50 (curve of first compound, second compound 0.00949 µM): 47.6 nM
- IC50 (curve of first compound, second compound 0.03 µM): < 31.6 nM
- IC50 (curve of first compound, second compound 0.0949 µM): < 31.6 nM
- IC50 (curve of first compound, second compound 0.3 µM): < 31.6 nM
Compound: NC1c2ccccc2OC12CCN(c1cnc3c(N4CCCc5ncccc54)n[nH]c3n1)CC2 (stereo unspecified) + CCn1c(-c2cc(N3CCN(C)CC3)cnc2C(C)OC)c2c3cc(ccc31)-c1csc(n1)CC(NC(=O)C1CC1C)C(=O)N1CCCC(N1)C(=O)OCC(C)(C)C2
- viability, T/C (second compound 0.000949 µM, first compound 0.0316 µM): 64.5%
- viability, T/C (second compound 0.000949 µM, first compound 0.1 µM): 50.1%
- viability, T/C (second compound 0.000949 µM, first compound 0.316 µM): 39%
- viability, T/C (second compound 0.000949 µM, first compound 1 µM): 39.8%
- viability, T/C (second compound 0.000949 µM, first compound 3.16 µM): 30.3%
- viability, T/C (second compound 0.000949 µM, first compound 10 µM): 29.1%
- viability, T/C (second compound 0.003 µM, first compound 0.0316 µM): 63%
- viability, T/C (second compound 0.003 µM, first compound 0.1 µM): 52%
- viability, T/C (second compound 0.003 µM, first compound 0.316 µM): 39.2%
- viability, T/C (second compound 0.003 µM, first compound 1 µM): 30.3%
- viability, T/C (second compound 0.003 µM, first compound 3.16 µM): 27.7%
- viability, T/C (second compound 0.003 µM, first compound 10 µM): 22.6%
- viability, T/C (second compound 0.00949 µM, first compound 0.0316 µM): 54.3%
- viability, T/C (second compound 0.00949 µM, first compound 0.1 µM): 43.1%
- viability, T/C (second compound 0.00949 µM, first compound 0.316 µM): 30.6%
- viability, T/C (second compound 0.00949 µM, first compound 1 µM): 24.3%
- viability, T/C (second compound 0.00949 µM, first compound 3.16 µM): 23.8%
- viability, T/C (second compound 0.00949 µM, first compound 10 µM): 21.9%
- viability, T/C (second compound 0.03 µM, first compound 0.0316 µM): 35.7%
- viability, T/C (second compound 0.03 µM, first compound 0.1 µM): 29.9%
- viability, T/C (second compound 0.03 µM, first compound 0.316 µM): 26.3%
- viability, T/C (second compound 0.03 µM, first compound 1 µM): 22.5%
- viability, T/C (second compound 0.03 µM, first compound 3.16 µM): 20.5%
- viability, T/C (second compound 0.03 µM, first compound 10 µM): 18.6%
- viability, T/C (second compound 0.0949 µM, first compound 0.0316 µM): 32.3%
- viability, T/C (second compound 0.0949 µM, first compound 0.1 µM): 27.8%
- viability, T/C (second compound 0.0949 µM, first compound 0.316 µM): 22.5%
- viability, T/C (second compound 0.0949 µM, first compound 1 µM): 20.8%
- viability, T/C (second compound 0.0949 µM, first compound 3.16 µM): 22.4%
- viability, T/C (second compound 0.0949 µM, first compound 10 µM): 19.1%
- viability, T/C (second compound 0.3 µM, first compound 0.0316 µM): 27.5%
- viability, T/C (second compound 0.3 µM, first compound 0.1 µM): 23.8%
- viability, T/C (second compound 0.3 µM, first compound 0.316 µM): 23.3%
- viability, T/C (second compound 0.3 µM, first compound 1 µM): 21.3%
- viability, T/C (second compound 0.3 µM, first compound 3.16 µM): 22.2%
- viability, T/C (second compound 0.3 µM, first compound 10 µM): 21.9%

- IC50 (curve of first compound, second compound 0.00316 µM): > 10000 nM
- IC50 (curve of first compound, second compound 0.01 µM): > 10000 nM
- IC50 (curve of first compound, second compound 0.0316 µM): > 10000 nM
- IC50 (curve of first compound, second compound 0.1 µM): > 10000 nM
- IC50 (curve of first compound, second compound 0.316 µM): > 10000 nM
- IC50 (curve of first compound, second compound 1 µM): > 10000 nM
Compound: C[C@@H](NC(=O)c1ncnc(N)c1Cl)c1ncc(C(=O)Nc2cc(C(F)(F)F)c(Cl)cn2)s1 + C=CC(=O)N1CCN(c2nc(OCC3CCCN3C)nc3c(F)c(-c4nc(N)cc(C)c4C(F)(F)F)c(Cl)cc23)C(C)C1
- viability, T/C (second compound 0.00316 µM, first compound 0.0316 µM): 111%
- viability, T/C (second compound 0.00316 µM, first compound 0.1 µM): 114%
- viability, T/C (second compound 0.00316 µM, first compound 0.316 µM): 133%
- viability, T/C (second compound 0.00316 µM, first compound 1 µM): 111%
- viability, T/C (second compound 0.00316 µM, first compound 3.16 µM): 112%
- viability, T/C (second compound 0.00316 µM, first compound 10 µM): 104%
- viability, T/C (second compound 0.01 µM, first compound 0.0316 µM): 111%
- viability, T/C (second compound 0.01 µM, first compound 0.1 µM): 115%
- viability, T/C (second compound 0.01 µM, first compound 0.316 µM): 121%
- viability, T/C (second compound 0.01 µM, first compound 1 µM): 114%
- viability, T/C (second compound 0.01 µM, first compound 3.16 µM): 119%
- viability, T/C (second compound 0.01 µM, first compound 10 µM): 98.4%
- viability, T/C (second compound 0.0316 µM, first compound 0.0316 µM): 111%
- viability, T/C (second compound 0.0316 µM, first compound 0.1 µM): 118%
- viability, T/C (second compound 0.0316 µM, first compound 0.316 µM): 116%
- viability, T/C (second compound 0.0316 µM, first compound 1 µM): 117%
- viability, T/C (second compound 0.0316 µM, first compound 3.16 µM): 128%
- viability, T/C (second compound 0.0316 µM, first compound 10 µM): 101%
- viability, T/C (second compound 0.1 µM, first compound 0.0316 µM): 109%
- viability, T/C (second compound 0.1 µM, first compound 0.1 µM): 109%
- viability, T/C (second compound 0.1 µM, first compound 0.316 µM): 110%
- viability, T/C (second compound 0.1 µM, first compound 1 µM): 117%
- viability, T/C (second compound 0.1 µM, first compound 3.16 µM): 117%
- viability, T/C (second compound 0.1 µM, first compound 10 µM): 91.8%
- viability, T/C (second compound 0.316 µM, first compound 0.0316 µM): 126%
- viability, T/C (second compound 0.316 µM, first compound 0.1 µM): 122%
- viability, T/C (second compound 0.316 µM, first compound 0.316 µM): 113%
- viability, T/C (second compound 0.316 µM, first compound 1 µM): 125%
- viability, T/C (second compound 0.316 µM, first compound 3.16 µM): 122%
- viability, T/C (second compound 0.316 µM, first compound 10 µM): 97.1%
- viability, T/C (second compound 1 µM, first compound 0.0316 µM): 119%
- viability, T/C (second compound 1 µM, first compound 0.1 µM): 116%
- viability, T/C (second compound 1 µM, first compound 0.316 µM): 127%
- viability, T/C (second compound 1 µM, first compound 1 µM): 133%
- viability, T/C (second compound 1 µM, first compound 3.16 µM): 119%
- viability, T/C (second compound 1 µM, first compound 10 µM): 97.7%
